Experimental data: PMC11242993, “Evaluation of the Therapeutic Potential of Sulfonyl Urea Derivatives as Soluble Epoxide Hydrolase (sEH) Inhibitors” (Molecules, 2024)

Legend:
mouse recombinant sEH = molecular target: T1, mouse recombinant sEH (Mus musculus, UniProt P34914); assay: Fluorescence-based sEH activity assay (PHOME substrate), mouse enzyme; assay type: biochemical; conditions: dose-dependent assay; read-out: Mouse sEH Inhibition IC50
T1 sequence (P34914 1-554): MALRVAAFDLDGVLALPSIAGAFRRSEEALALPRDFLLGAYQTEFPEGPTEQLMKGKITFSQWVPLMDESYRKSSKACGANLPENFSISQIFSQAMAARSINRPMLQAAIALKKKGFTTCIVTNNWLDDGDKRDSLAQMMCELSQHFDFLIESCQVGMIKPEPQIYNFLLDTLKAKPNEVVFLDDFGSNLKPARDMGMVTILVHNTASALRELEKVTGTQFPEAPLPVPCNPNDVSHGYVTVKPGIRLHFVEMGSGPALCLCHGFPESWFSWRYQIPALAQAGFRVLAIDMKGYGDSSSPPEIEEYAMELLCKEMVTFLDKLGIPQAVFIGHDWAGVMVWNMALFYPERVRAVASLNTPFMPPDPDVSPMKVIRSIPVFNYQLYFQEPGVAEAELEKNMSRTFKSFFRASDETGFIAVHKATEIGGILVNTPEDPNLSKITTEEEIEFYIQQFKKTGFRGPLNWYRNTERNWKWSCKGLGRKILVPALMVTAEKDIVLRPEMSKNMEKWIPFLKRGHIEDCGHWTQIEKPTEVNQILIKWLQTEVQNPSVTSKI
Procedure: (§1) A fluorescence-based sEH activity assay provided a convenient method for screening human epoxide hydrolase inhibitors. The assay utilized (3-Phenyl-oxiranyl)-acetic acid cyano-(6-methoxy-naphthalen-2-yl)-methyl ester (PHOME) as a substrate. […] The inhibitory function of the compounds on sEH activity was tested as detailed in the product manual from Cayman Chemical. Briefly, 3 mL sEH assay buffer (10×) was diluted with 27 mL HPLC-grade water. This final assay buffer, 25 mM bis-tris (pH 7.0), was used in the assay and for the dilution of the soluble epoxide hydrolase (sEH) enzyme. Amounts of 12 μL each of human and mouse recombinant sEH were thawed on ice. Prior to assaying, 588 μL cold assay buffer was added directly to the enzyme vial. An amount of 190 μL assay buffer and 5 μL solvent (40% DMSO in assay buffer) were added to the background wells. In the 100% initial activity wells, 185 μL assay buffer, 5 μL sEH, and 5 μL solvent were added. In inhibitor wells, 185 μL assay buffer, 5 μL solution of the synthesized compounds, and 5 μL of recombinant enzyme solution were added. To start the reaction, 5 μL of PHOME was added to each well at a final concentration of 0.25 mM. The microwell plate was shaken carefully for 10 s and covered with a plate cover.
(§2) Average fluorescence (AF) of the background wells and 100% initial activity in the wells and of each of the inhibitors were determined. The background AF was subtracted from the 100% initial activity and inhibitor AFs. The % sEH activity is calculated as (inhbitited AF/% 100 initial activity) × 100.
(§3) Multiple concentrations of the inhibitors were tested followed by plotting of the percent activity as a function of inhibitor concentration to determine the IC50 values.

human recombinant sEH = molecular target: T2, human recombinant sEH (Homo sapiens, UniProt P34913); assay: Fluorescence-based sEH activity assay (PHOME substrate), human enzyme; assay type: biochemical; conditions: for IC50: dose-dependent assay, read-out: Human sEH Inhibition IC50
T2 construct: purchased Cayman Chemical 10011671
T2 sequence (P34913 1-555): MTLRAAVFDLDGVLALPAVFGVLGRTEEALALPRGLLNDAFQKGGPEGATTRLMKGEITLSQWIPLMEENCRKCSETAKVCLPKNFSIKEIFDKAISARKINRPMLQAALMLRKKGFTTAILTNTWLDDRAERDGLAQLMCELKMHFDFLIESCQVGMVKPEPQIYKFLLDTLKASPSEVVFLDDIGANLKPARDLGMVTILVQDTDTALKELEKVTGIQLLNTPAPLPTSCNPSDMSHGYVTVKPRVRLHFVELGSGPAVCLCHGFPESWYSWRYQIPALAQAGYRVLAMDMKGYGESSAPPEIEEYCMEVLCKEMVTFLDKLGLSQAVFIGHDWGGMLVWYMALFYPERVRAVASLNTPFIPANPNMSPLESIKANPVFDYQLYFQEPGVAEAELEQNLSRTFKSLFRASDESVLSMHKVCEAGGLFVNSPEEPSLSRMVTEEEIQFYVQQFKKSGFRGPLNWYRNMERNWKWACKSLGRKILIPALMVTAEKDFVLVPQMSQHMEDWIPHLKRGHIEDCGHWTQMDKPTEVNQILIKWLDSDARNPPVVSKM
Procedure: as §1, with “added.” for “added. To start the reaction, 5 μL of PHOME was added to each well at a final concentration of 0.25 mM. The microwell plate was shaken carefully for 10 s and covered with a plate cover.”
as §2, §3

mice = assay: LPS-induced acute lung injury (ALI) model; assay type: in vivo; conditions: 10 mg/kg i.p.
Procedure: LPS-induced acute lung injury induced by a single oropharyngeal instillation of lipopolysaccharide (LPS) (50 µg/mouse) in 16-week-old mice as described previously. Briefly, LPS (L4391, MilliporeSigma, Burlington, MA, USA) was dissolved in sterile saline and administered at 50 µg/mouse in 40 µL after anesthesia induced by ketamine/xylazine. The mice were studied 24 h after LPS or saline instillation.
BALF was collected from anesthetized mice by lavaging lungs two times with 0.8 mL Hanks’ balanced salt solution without calcium and magnesium (HBSS) (Sigma-Aldrich, St. Louis, MI, USA). Supernatants were collected as BALF for further analyses.
The number of cells in the BALF was estimated using an automated cell counter, the Countess II FL cell counter (Thermo Fisher Scientific Inc., Waltham, MA, USA).
Albumin levels were measured by the Mouse Albumin Elisa Assay kit (Cat # E99-134), which was obtained from Bethyl Laboratories. BALF samples from the LPS group were diluted at a 1:2000 ratio.
Total protein in BALF samples was measured using the Pierce BCA protein assay kit (Cat # 23225) as detailed in the product manual (Thermo Fisher Scientific).
The right middle lobe was immediately placed in an RNA later solution and stored at −80 °C until the RNA extraction procedure. RNA extraction was performed using RNeasy Mini Kits from Qiagen (Valencia, CA, USA). One microgram of total RNA was reverse transcribed to cDNA using an iScript cDNA synthesis kit (Bio-Rad, Hercules, CA, USA). Expression of the target genes was quantified using gene-specific primers and PowerSYBRGreen master mix (Thermo Fisher Scientific) in a QuantStudio 3 Real-Time PCR instrument (Thermo Fisher Scientific). Predesigned mouse IL-6 (QT00098875), TNF-α (QT00104006), IL-1β (QT01048355), CXCL1 (QT00115647), CCL2 (QT00167832), CXCL3 (QT00151599) and CXCL9 (QT00097062) primers were purchased from Qiagen (Valencia, CA, USA). Fold changes in gene expression relative to the housekeeping gene TATA-Box Binding Protein (Tbp, QT00198443) were determined. Gene expression values were calculated based on the […] method.

C57BL/6J male mice = assay: Hot plate model; assay type: in vivo; conditions: 10 mg/kg i.p.
Procedure: Thermal nociception in the hot plate test was assessed with a commercially available apparatus (Hotplate Analgesia Meter, Columbus Instruments) consisting of a metal plate to a constant temperature of 55.0 ± 0.1 °C. Mice were put into the hot plate testing instrument to adapt for at least 15 min. The device was connected to a manually operated timer that recorded the amount of time the mouse spent on the heated surface before showing signs of nociception (e.g., licked its paws or jumped), the cut-off time was 60 s. The baseline (basic pain threshold, the response was more than 25 s, and the jumping mice were excluded.) was calculated as the mean of three readings recorded before testing at intervals of 15 min. The time course of latency was then determined at 15, 30, 45, 60, 90, and 120 min after compound treatment. Data were analyzed as time-course curves of the percentage of maximum effect MPE% = (post drug latency − baseline latency) × 100/(cut-off time − baseline latency). C57BL/6J male mice obtained from The Jackson Laboratory (Bar Harbor, ME, USA) weighing 28 g were used for the hot plate test. Animal procedures were conducted following the rules and regulations of the Institutional Animal Care and Use Committee of the National Institute on Alcohol Abuse and Alcoholism (NIAAA) under the protocols of LPS-GK1.

[1] = In vivo pharmacokinetic experiment; set-up: species or system C57BL/6J mice; conditions: male, C57BL/6J, mouse, serum, other: oral and intraperitoneal; mice, oral and intraperitoneal administration, 10 mg/kg; read-out: plasma half-life
Procedure: Twenty 8–9-week-old male C57BL/6J mice were taken for the in vivo pharmacokinetic experiment. They were divided into four groups, each containing five mice. Each group was used for either oral or intraperitoneal administration of compound 4f or 15a. Both the compounds were reconstituted in 5% DMSO, 5% TWEEN 80 in saline water (pH = 7.4). The mice were orally and intraperitoneally administered compounds at 10 mg/kg dose. Blood samples were collected at 0, 0.5, 1, 2, 4, 6, and 24 h after administration of the compound, and serum was isolated with the compound. For the pharmacokinetic study, 10 μL of serum samples from mice were extracted with a 2:1 mixture of LC/MS-grade chloroform and methanol, followed by intermittent vortexing, and then centrifuged at 4000 rpm for 10 min at 4 °C. Thereafter, the supernatant was collected and analyzed by LC−MS/MS to measure the concentrations of compounds 4f and 15a in the serum.

| SMILES | IC50 (mouse recombinant sEH) [nM] | Human sEH % Inhibition (human recombinant sEH) [%] | IC50 (human recombinant sEH) [nM] | effect on LPS-induced increase in total protein in BALF (mice) | number of cells in bronchoalveolar lavage (BAL) (mice) | LPS-induced lung gene expression of interleukin 1B (IL-1B) (mice; qPCR) | LPS-induced lung gene expression of interleukin 6 (IL-6) (mice; qPCR) | lung gene expression of CXCL1 (mice; qPCR) | analgesic effect in hot plate assay (C57BL/6J male mice) | half-life [1] [h] |
| --- | --- | --- | --- | --- | --- | --- | --- | --- | --- | --- |
| O=S(=O)(NC(=S)NC12CC3CC(CC(C3)C1)C2)c1ccccc1 [Compound 6a, N-((adamantan-1-yl)carbamothioyl)benzenesulfonamide] | > 1000 | 84.56 | 130 |  |  |  |  |  |  |  |
| O=C(NC12CC3CC(CC(C3)C1)C2)NS(=O)(=O)c1ccccc1 [Compound 4a] | > 1000 | 93.61 | 100 |  |  |  |  |  |  |  |
| O=S(=O)(NC(=S)NC12CC3CC(CC(C3)C1)C2)c1ccc(OC(F)(F)F)cc1 [Compound 6d, N-((adamantan-1-yl)carbamothioyl)-4-(trifluoromethoxy)benzenesulfonamide] | 110 | 96.24 | 4.66 |  |  |  |  |  |  |  |
| O=C(O)CCCCCCCCCCCNC(=O)NC12CC3CC(CC(C3)C1)C2 [AUDA, 12-(3-adamantan-1-ylureido)dodecanoic acid, reference compound] |  |  |  | neither AUDA nor novel sEH inhibitors’ (4f and 4l) effect | similarly attenuated the number of cells in BAL | attenuated | attenuated | similarly attenuated | none of the sEH inhibitors, including AUDA, showed any analgesic effect |  |
| CC12CC3CC(C)(C1)CC(NC(=O)NS(=O)(=O)c1ccc4ccccc4c1)(C3)C2 [Compound 15b, N-((3,5-dimethyladamantan-1-yl)carbamoyl)naphthalene-2-sulfonamide] | > 1000 | 47.05 | 950 |  |  |  |  |  |  |  |
| CC12CC3CC(C)(C1)CC(NC(=O)NS(=O)(=O)c1ccc(OC(F)(F)F)cc1)(C3)C2 [Compound 15a, N-((3,5-dimethyladamantan-1-yl)carbamoyl)-4-(trifluoromethoxy)benzenesulfonamide] | 22 | 92.06 | 3.87 |  |  |  |  |  |  | < 2 |
| O=C(NC1CCN(C(=O)NC23CC4CC(CC(C4)C2)C3)CC1)NS(=O)(=O)c1ccc(OC(F)(F)F)cc1 [Compound 18, N-(1-((adamantan-1-yl)carbamoyl)piperidin-4-yl)-N′-((4-(trifluoromethoxy)phenyl)sulfonyl)carbamimidic acid] | 710 | 60.80 | 38.7 |  |  |  |  |  |  |  |
